{"source": "patent US20050002943A1", "about": "“Amp-kinase agonists or adenosine pro-drugs as immuno-stimulating agents” (priority 2001, published 2005)", "key": {"BALB/c mice [1]": {"tested_on": "BALB/c mice", "assay": "Primary and secondary antibody response to Ars-KLH with oligomycin, serum ELISA (Example 11)", "format": "in vivo", "conditions": "oligomycin 10 μg i.p. with Ars-KLH 50 μg, vs antigen alone; primary (day 21) and secondary (14 days after boost)", "procedure": "BALB/C mice were injected intraperitoneally with Ars-KLH (50 μg) mixed with saline, AICA-riboside (3 mg) or oligomycin (10 μg). 21 days after immunization, mice were bled and serum levels of Ars-specific antibodies (primary response) were determined by ELISA according to standard procedure using isotype-specific rat mAb. […] On day 22, all mice received a second injection of Ars-KLH (50 μg) intrapertioneally. Mice were bled 14 days after the antigen boost and serum levels of Ars-KLH-specific antibodies (secondary response) were determined by ELISA."}, "BALB/c mice [2]": {"tested_on": "BALB/c mice", "assay": "Primary antibody response to Ars-KLH with AICAR or 6-MPR, serum ELISA (Example 10)", "format": "in vivo", "conditions": "3 mg i.p. with Ars-KLH 100 μg; for antigen-specific IgG antibodies: vs antigen without adjuvant, day 19", "procedure": "BALB/c micereceived an intraperitoneal injection of Ars-KLH (100 μg), Ars-KLH+AICAR (3 mg) or Ars-KLH+6-MPR (3 mg). 19 days after Immunization, mice were bled and serum levels of antigen specific antibodies were determined by ELISA according to standard procedure using isotype-specific rat Mab."}, "BALB/c mice [3]": {"tested_on": "BALB/c mice", "assay": "Antigen (NP)-specific antibody response to NP-KLH, serum ELISA (Example 1)", "format": "in vivo", "procedure": "BALB/c mice were injected intraperitoneally with 200 μl of saline, aqueous solution (phosphate buffer solution), or with 200 μl of phosphate buffer solution containing AICA-riboside (10 mg), NP-KLH (100 μg) or NP-KLH (100 μg)+AICA-riboside (10 mg). Height days after immunization, mice were bled and serum levels of antigen (NP)-specific antibodies were determined by ELISA according to standard procedure using isotype-specific reagents."}, "BALB/c mice [4]": {"tested_on": "BALB/c mice", "assay": "Primary, secondary and day 120 Ars-specific antibody response to Ars-KLH, serum ELISA (Examples 2 and 3)", "format": "in vivo", "procedure": "Three groups of BALB/c mice received an intraperitoneal injection of Ars-KLH (100 μg), Ars-KLH (100 μg)+AICA-riboside (10 mg) or Ars-KLH (100 μg)+Alum (50 μl). 21 days after immunization, mice were bled and serum levels of antigen (Ars)-specific antibodies were determined by ELISA as previously described (primary response). On day 22, all mice received a second injection (boost) of Ars-KLH (100 μg) i.p. Mice were bled 8 days after the antigen boost and serum levels of Ars-specific antibodies were determined by ELISA (secondary response). The results are illustrated in FIG. 2.\nMice immunized according to the protocol described in example 2 were bled 120 days after the first encounter with the antigen (in the presence or absence of adjuvant) and serum levels of antigen specific antibodies were determined by ELISA as described previously (secondary response, day 120)."}, "BALB/c mice [5]": {"tested_on": "BALB/c mice", "assay": "Primary and secondary antibody response to human gamma globulins (HGG), serum ELISA (Example 4)", "format": "in vivo", "conditions": "HGG 15 μg + AICA-riboside 10 mg i.p., boost day 25", "procedure": "BALB/c mice received an intraperitoneal injection of HGG (15 μg) or HGG (15 μg)+AICA-riboside (10 mg). 16 days after immunization, mice were bled and serum levels of HGG-specific antibodies were determined by ELISA as described. On day 25, the two groups of mice received respectively a boost of HGG (15 μg) and of HGG (15 μg)+AICA-riboside (10 mg) intraperitoneally. Mice were bled 10 days after the boost and serum levels of HGG-specific antibodies were determined by ELISA as described previously (secondary response). The results are illustrated in FIG. 4."}, "BALB/c mice [6]": {"tested_on": "BALB/c mice", "assay": "Ars-KLH antibody response over a range of AICA-riboside doses (Example 5)", "format": "in vivo", "conditions": "AICA-riboside 3 to 0.3 mg i.p. with Ars-KLH 100 μg; primary and secondary response", "procedure": "BALB/c mice received an intraperitoneal injection of Ars-KLH (100 μg) or Ars-KLH (100 μg)+AICA-riboside at concentrations ranging from 3 to 0.3 mg. 21 days after immunization, mice were bled and serum levels of antigen (Ars)-specific antibodies were determined by ELISA according to standard procedure using isotype-specific reagents (primary response). On day 22, all mice received a boost of Ars-KLH (50 μg) intraperitoneally. Mice were bled 14 days after the antigen boost and serum levels of Ars-specific antibodies were determined by ELISA as described previously (secondary response). The results are illustrated in FIG. 5."}, "BALB/c mice [7]": {"tested_on": "BALB/c mice", "assay": "Ars-KLH antibody response, timing of AICA-riboside injection relative to antigen (Example 6)", "format": "in vivo", "conditions": "AICA-riboside 10 mg i.p. at d-1, d0 or d+1, separate site from Ars-KLH 100 μg", "procedure": "BALB/c mice received an intraperitoneal injection of AICA-riboside (10 mg) one day before (d-1), the same day (d0) or the day after (d+1) the intraperitoneal injection (in a separate site) of Ars-KLH (100 μg). A fourth group (n.t.) received an intraperitoneal injection of phosphate buffer solution the day of the antigen administration. 20 days after immunization, mice were bled and serum levels of Ars-specific antibodies were determined by ELISA according to standard procedures using isotype-specific reagents (primary response). On day 21, all mice received a boost of Ars-KLH (50 μg) intraperitoneally. Mice were bled 14 days after the antigen boost and serum levels of Ars-specific antibodies were determined by ELISA as described previously (secondary response)."}, "BALB/c mice [8]": {"tested_on": "BALB/c mice", "assay": "NP-KLH antibody response in anti-CD4 treated mice (Example 7)", "format": "in vivo", "conditions": "anti-CD4 (GK1.5) treated mice; NP-KLH 100 μg + AICA-riboside 10 mg i.p.; day 10", "procedure": "BALB/c mice, were treated or not with anti-CD4 antibodies (two intraperitoneal injections of 200 μl of the depleting rat anti-mouse anti-CD4 antibody, clone GK1.5, on days 0 and 5). On day 2 mice were injected intraperitoneally with NP-KLH (100 μg) or NP-KLH (100 μg)+AICA-riboside (10 mg). 10 days after immunization, mice were bled and serum levels of NP-specific antibodies were determined by ELISA according to standard procedures using isotype specific reagents."}, "BALB/c mice [9]": {"tested_on": "BALB/c mice", "assay": "Size of draining lymph nodes after footpad injection (Example 8)", "format": "in vivo", "conditions": "rear footpad injection with NP-KLH 25 μg; AICA-riboside 2.5 mg or Alum 12.5 μg; 8 days", "procedure": "BALB/c mice were injected with NP-KLH (25 μg), NP-KLH (25 μg)+AICA-riboside (2.5 mg) or NP-KLH (25 μg)+Alum (12.5 μg) in the two rear footpads. 8 days after injection, mice were sacrificed and their posterior lymph nodes were collected and immediately analyzed for size."}, "BALB/c mice [10]": {"tested_on": "BALB/c mice", "assay": "Local inflammatory response at injection site, GR-1 immunohistochemistry (Example 9)", "format": "in vivo", "conditions": "rear footpad injection; AICA-riboside 2.5 mg or alum 12.5 μg; 8 or 24 hours", "procedure": "BALB/c mice were injected with saline (50 μl PBS), AICA-boside (2.5 mg) or alum (12.5 μg) in the two rear footpads. 8 or 24 hours after treatment mice were sacrificed, and thin sections of the tissues surrounding the injection site (marked by a circle) were analyzed by immunohistochemistry. Inflammatory cells (mostly granulocytes and monocytes) were identified using an antibody directed to the murine GR-1 molecule."}, "mice": {"tested_on": "mice", "assay": "Serum antibody response in mice to protein antigens mixed with AICA-riboside (general studies)", "format": "in vivo", "excerpt": "(§1) Although the precise mechanism(s) by which AICA-riboside augments antibody responses in vivo is presently unknown, some points are noteworthy in light of the present invention. […] A qualitative change of the humoral response is also observed, as immunoglobulins of the IgG isotype (generally detected only during the secondary response) are already detected during the primary response in animals treated with antigen/AICA-riboside formulations. […] The immuno-potentiating effect of AICA-riboside in combination with said antigen is as good when the compounds are administered mixed together (co-administered) as when administered separately or sequentially. […] The use of this agent therefore probably precludes local pain after injection."}, "murine lymphocytes": {"tested_on": "murine lymphocytes", "assay": "In vitro response of murine lymphocytes, cytokine secretion", "format": "cell-based", "excerpt": "as §1"}, "humans": {"tested_on": "humans", "conditions": "all dose levels (10 to 100 mg/kg); cited from earlier work"}}, "note": "Entries after “also recorded” stand apart in the source; their conditions may differ."}
{"smiles": "CC[C@H]1/C=C/C=C/C[C@@H](C)[C@H](O)[C@@](C)(O)C(=O)[C@@H](C)[C@H](O)[C@@H](C)C(=O)[C@@H](C)[C@H](O)[C@@H](C)/C=C/C(=O)O[C@@H]2[C@H](C)[C@H](CC1)O[C@]1(CC[C@H](C)[C@H](C[C@@H](C)O)O1)[C@H]2C", "note": "[oligomycin]", "values": [{"measurement": "antigen-specific IgG antibodies", "setting": "BALB/c mice [1]", "value": "increased levels of antigen-specific IgG antibodies; also recorded: increases antibody responses"}]}
{"smiles": "OC[C@H]1O[C@@H](n2cnc3c(S)ncnc32)[C@H](O)[C@@H]1O", "note": "[6-MPR, 6-mercaptopurine riboside]", "values": [{"measurement": "antigen-specific IgG antibodies", "setting": "BALB/c mice [2]", "value": "increased levels of antigen-specific IgG antibodies"}]}
{"smiles": "NC(=O)c1ncn([C@@H]2O[C@H](CO)[C@@H](O)[C@H]2O)c1N", "note": "[AICA-riboside, 5-aminoimidazole-4-carboxamide riboside]", "values": [{"measurement": "antigen (NP)-specific antibody response", "setting": "BALB/c mice [3]; AICA-riboside 10 mg co-administered i.p. with NP-KLH 100 μg, vs antigen alone, bled Height days after immunization", "value": "increased antigen-specific antibody response"}, {"measurement": "antigen (NP)-specific antibody response", "setting": "BALB/c mice [3]; AICA-riboside 10 mg i.p. alone, without antigen", "value": "does not lead to an increased, antigen-specific antibody response"}, {"measurement": "antigen-specific IgM response", "setting": "BALB/c mice [4]; 10 mg i.p. with Ars-KLH 100 μg, vs antigen without adjuvant", "value": "unaffected"}, {"measurement": "antigen-specific IgG antibodies", "setting": "BALB/c mice [4]; 10 mg i.p. with Ars-KLH 100 μg, vs antigen without adjuvant, primary (day 21) and secondary (8 days after boost) response", "value": "increased levels of antigen-specific IgG antibodies"}, {"measurement": "immuno-stimulatory properties compared with Alum", "setting": "BALB/c mice [4]; AICA-riboside 10 mg vs Alum 50 μl, each with Ars-KLH 100 μg i.p.", "value": "comparable to the Alum adjuvant"}, {"measurement": "antigen-specific response, day 120", "setting": "BALB/c mice [4]; bled 120 days after first encounter with antigen, vs antigen alone", "value": "long-lasting increase in antigen-specific response"}, {"measurement": "antibody response to protein antigen HGG", "setting": "BALB/c mice [5]", "value": "augments the antibody response"}, {"measurement": "adjuvant activity over dose range", "setting": "BALB/c mice [6]", "value": "can act as an adjuvant over a wide range of doses"}, {"measurement": "adjuvant effect depending on time of injection", "setting": "BALB/c mice [7]", "value": "only manifest when AICA-riboside is injected at the same moment with the antigen"}, {"measurement": "antigen-specific antibody responses in the absence of CD4-expressing T cells", "setting": "BALB/c mice [8]", "value": "does not augment the antigen-specific antibody responses"}, {"measurement": "swelling of the lymph node draining the injection site", "setting": "BALB/c mice [9]", "value": "does not induce the swelling"}, {"measurement": "GR-1-expressing inflammatory cell recruitment / cellular infiltrates", "setting": "BALB/c mice [10]", "value": "minimal GR-1-expressing cells recruitment to sites distant from the injection site"}, {"measurement": "tissue necrosis at injection site", "setting": "BALB/c mice [10]", "value": "no tissue necrosis or abnormality"}, {"measurement": "antigen-specific IgG antibodies", "setting": "BALB/c mice [2]", "value": "increased levels of antigen-specific IgG antibodies"}, {"measurement": "Ars specific antibodies concentrations", "setting": "BALB/c mice [2]; serum 19 days after immunization, Ars-KLH+saline control 0.04", "value": "1.607 ± 0.521", "unit": "µg/mL"}, {"measurement": "local inflammatory response following injection", "setting": "mice; injection into mice", "value": "no local inflammatory response was observed"}, {"measurement": "boost of serum antibody response above unadjuvanted antigens", "setting": "mice; mixed in aqueous solutions with protein antigens, mice", "value": "five to ten folds"}, {"measurement": "secretion of cytokines", "setting": "murine lymphocytes; in response to bacterial mitogens, lectins or protein antigens", "value": "did not affect the secretion of cytokines"}, {"measurement": "enhancing effect on in vitro response of murine lymphocytes", "setting": "murine lymphocytes; in vitro", "value": "no enhancing effect"}, {"measurement": "tolerability in humans", "setting": "humans", "value": "well tolerated"}]}
